From patent US4370326A, “Cephem compounds and composition” (Fujisawa Pharmaceutical Co., Ltd., priority 1977, dated 1983)
≈ marks a conversion by molar mass, not a printed value.

Experiments:
Assay in all cases: In vitro antibacterial activity, two-fold agar-plate dilution method
Format in all cases: cell-based
Escherichia coli 324 = details: heart infusion agar, 37° C., 20 hours, 10^8 viable cells per ml, read-out: minimal inhibitory concentration (MIC)
Method: (§1) In vitro antibacterial activity was determined by the two-fold agar-plate dilution method as described below. One loopful of an overnight culture of each test strain in Trypticase-soy broth (10^8 viable cells per ml.) was streaked on heart infusion agar (HI-agar) containing graded concentrations of antibiotics, and the minimal inhibitory concentration (MIC) was expressed in terms of μg/ml. after incubation at 37° C. for 20 hours. [drawing 15]

Klebsiella aerogenes 417 = details: heart infusion agar, 37° C., 20 hours, 10^8 viable cells per ml, read-out: minimal inhibitory concentration (MIC)
Method: as §1

Proteus mirabilis 520 = details: heart infusion agar, 37° C., 20 hours, 10^8 viable cells per ml, read-out: minimal inhibitory concentration (MIC)
Method: as §1

Proteus vulgaris 616 = details: heart infusion agar, 37° C., 20 hours, 10^8 viable cells per ml, read-out: minimal inhibitory concentration (MIC)
Method: as §1

Salmonella enteritidis = details: Salmonella enterica, heart infusion agar, 37° C., 20 hours, 10^8 viable cells per ml, read-out: minimal inhibitory concentration (MIC)
Method: as §1

MIC (Escherichia coli 324) [µg/mL]	MIC (Klebsiella aerogenes 417) [µg/mL]	MIC (Proteus mirabilis 520) [µg/mL]	MIC (Proteus vulgaris 616) [µg/mL]	MIC (Salmonella enteritidis) [µg/mL]	SMILES
1.56 (≈ 4.4 µM)	0.1 (≈ 0.282 µM)	0.78 (≈ 2.2 µM)	12.5 (≈ 35.3 µM)	1.56 (≈ 4.4 µM)	Nc1nc(C(=O)C(=O)NC2C(=O)N3C(C(=O)O)=CCSC23)cs1 (centres unmarked) [Compound 1]
1.56 (≈ 4.58 µM)	0.2 (≈ 0.588 µM)	0.39 (≈ 1.15 µM)	6.25 (≈ 18.4 µM)	1.56 (≈ 4.58 µM)	Nc1nc(CC(=O)NC2C(=O)N3C(C(=O)O)=CCSC23)cs1 (centres unmarked) [Compound 2]
0.78 (≈ 2.19 µM)	0.39 (≈ 1.1 µM)	0.78 (≈ 2.19 µM)	1.56 (≈ 4.39 µM)	3.13 (≈ 8.81 µM)	Nc1nc(C(N)C(=O)NC2C(=O)N3C(C(=O)O)=CCSC23)cs1 (centres unmarked) [Compound 3]
1.56 (≈ 4.38 µM)	0.78 (≈ 2.19 µM)	1.56 (≈ 4.38 µM)	12.5 (≈ 35.1 µM)	3.13 (≈ 8.78 µM)	Nc1nc(C(O)C(=O)NC2C(=O)N3C(C(=O)O)=CCSC23)cs1 (centres unmarked) [Compound 4]
